Earlier results on one compound are cited in US12721837B2, “Stable pharmaceutical compositions of clonidine” (AZURITY PHARMACEUTICALS, INC., priority 2021, dated 2026).

The conditions of data set [1]: after oral administration.

Take `Clc1cccc(Cl)c1N=C1NCCN1` [Clonidine, N-(2,6-dichlorophenyl)-4,5-dihydro-1H-imidazol-2-amine]: the Solubility in water entry was “freely soluble”. The “Absorption from the gastrointestinal tract” value in data set [1] is given as “almost completely absorbed”.
